Where a name gives a salt, the structure may show the parent alone.
The compounds below were run against TrkA (Homo sapiens (Human), UniProt P04629) (assay: TrkA Omnia Assay). Conditions: averaged IC50; 20 nM enzyme, 500 μM ATP, 10 μM peptide substrate.
Format: biochemical
Procedure, shortened: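 Recombinant TrkA (20 nM) preincubated 10 min at ambient temperature with compound, then Omnia Tyr Peptide #4 (10 μM) and ATP (500 μM) added in 25 mM MOPS pH 7.5, 5 mM MgCl2, 0.005% Triton X-100. Fluorescence (ex 360/em 485 nm) followed continuously for 70 min; IC50 from initial rates by 4- or 5-parameter logistic fit.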

TrkA, sequence (P04629 33-796): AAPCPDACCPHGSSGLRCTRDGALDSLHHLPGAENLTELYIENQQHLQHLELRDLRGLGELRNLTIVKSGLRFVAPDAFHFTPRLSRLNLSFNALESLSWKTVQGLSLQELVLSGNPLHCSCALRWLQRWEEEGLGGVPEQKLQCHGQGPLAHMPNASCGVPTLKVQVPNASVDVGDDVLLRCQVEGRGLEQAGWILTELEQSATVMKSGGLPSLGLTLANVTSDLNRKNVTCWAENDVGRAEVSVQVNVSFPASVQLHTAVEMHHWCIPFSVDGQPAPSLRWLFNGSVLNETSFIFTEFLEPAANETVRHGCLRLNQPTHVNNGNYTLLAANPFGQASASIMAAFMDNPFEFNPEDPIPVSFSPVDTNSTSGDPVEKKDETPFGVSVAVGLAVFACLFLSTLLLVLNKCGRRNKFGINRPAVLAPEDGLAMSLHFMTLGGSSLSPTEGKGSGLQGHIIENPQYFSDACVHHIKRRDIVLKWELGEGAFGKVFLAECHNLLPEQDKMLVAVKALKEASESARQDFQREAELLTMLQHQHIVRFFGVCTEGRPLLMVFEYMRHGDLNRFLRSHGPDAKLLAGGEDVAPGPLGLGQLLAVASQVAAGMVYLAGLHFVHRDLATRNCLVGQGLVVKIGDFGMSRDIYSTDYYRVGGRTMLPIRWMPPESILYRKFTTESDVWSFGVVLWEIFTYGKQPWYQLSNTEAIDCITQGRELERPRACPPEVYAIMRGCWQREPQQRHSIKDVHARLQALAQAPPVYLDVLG

Row | IC50 [µM] | Compound
1 | < 0.1 | COCCN1C[C@@H](NC(=O)Nc2c(Cl)c(-c3c(C)noc3C)nn2-c2ccccc2)[C@H](c2ccc(F)c(F)c2)C1 [Example 571, 1-(4-chloro-3-(3,5-dimethylisoxazol-4-yl)-1-phenyl-1H-pyrazol-5-yl)-3-((3S,4R)-4-(3,4-difluorophenyl)-1-(2-methoxyethyl)pyrrolidin-3-yl)urea]
2 | 0.1 to 1 | COCCN1C[C@@H](NC(=O)Nc2c(Cl)c([C@H]3CCCN3C(=O)OC(C)(C)C)nn2-c2ccccc2)[C@H](c2ccc(F)c(F)c2)C1 [Example 572, (R)-tert-butyl 2-(4-chloro-5-(3-((3S,4R)-4-(3,4-difluorophenyl)-1-(2-methoxyethyl)pyrrolidin-3-yl)ureido)-1-phenyl-1H-pyrazol-3-yl)pyrrolidine-1-carboxylate]
3 | 0.1 to 1 | COCCN1C[C@@H](NC(=O)Nc2c(Cl)c([C@@H]3CCCN3C(=O)OC(C)(C)C)nn2-c2ccccc2)[C@H](c2ccc(F)c(F)c2)C1 [Example 573, (S)-tert-butyl 2-(4-chloro-5-(3-((3S,4R)-4-(3,4-difluorophenyl)-1-(2-methoxyethyl)pyrrolidin-3-yl)ureido)-1-phenyl-1H-pyrazol-3-yl)pyrrolidine-1-carboxylate]
4 | < 0.1 | COCCN1C[C@@H](NC(=O)Nc2c(Br)c(C3CCOCC3)nn2-c2ccccc2)[C@H](c2ccc(F)c(F)c2)C1 [Example 574, 1-(4-bromo-1-phenyl-3-(tetrahydro-2H-pyran-4-yl)-1H-pyrazol-5-yl)-3-((3S,4R)-4-(3,4-difluorophenyl)-1-(2-methoxyethyl)pyrrolidin-3-yl)urea]
5 | < 0.1 | COCCN1C[C@@H](NC(=O)Nc2c(Br)c(C3CCN(C(=O)OC(C)(C)C)CC3)nn2-c2ccccc2)[C@H](c2ccc(F)c(F)c2)C1 [Example 575, Tert-butyl 4-(4-bromo-5-(3-((3S,4R)-4-(3,4-difluorophenyl)-1-(2-methoxyethyl)pyrrolidin-3-yl)ureido)-1-phenyl-1H-pyrazol-3-yl)piperidine-1-carboxylate]
6 | < 0.1 | COCCN1C[C@@H](NC(=O)Nc2c(Br)c(C3CCOCC3)nn2-c2ccccc2)[C@H](c2ccc(F)cc2)C1 [Example 576, 1-(4-bromo-1-phenyl-3-(tetrahydro-2H-pyran-4-yl)-1H-pyrazol-5-yl)-3-((3S,4R)-4-(4-fluorophenyl)-1-(2-methoxyethyl)pyrrolidin-3-yl)urea]
7 | < 0.1 | COCCN1C[C@@H](NC(=O)Nc2c(Br)c(-c3c(C)noc3C)nn2-c2ccccc2)[C@H](c2ccc(F)c(F)c2)C1 [Example 577, 1-(4-bromo-3-(3,5-dimethylisoxazol-4-yl)-1-phenyl-1H-pyrazol-5-yl)-3-((3S,4R)-4-(3,4-difluorophenyl)-1-(2-methoxyethyl)pyrrolidin-3-yl)urea]
8 | 0.1 to 1 | COCCN1C[C@@H](NC(=O)Nc2c(Br)c([C@H]3CCCN3C(=O)OC(C)(C)C)nn2-c2ccccc2)[C@H](c2ccc(F)c(F)c2)C1 [Example 578, (R)-tert-butyl 2-(4-bromo-5-(3-((3S,4R)-4-(3,4-difluorophenyl)-1-(2-methoxyethyl)pyrrolidin-3-yl)ureido)-1-phenyl-1H-pyrazol-3-yl)pyrrolidine-1-carboxylate]
9 | < 0.1 | COCCN1C[C@@H](NC(=O)Nc2c(Br)c(COC3CCN(C(=O)OC(C)(C)C)CC3)nn2-c2ccccc2)[C@H](c2ccc(F)c(F)c2)C1 [Example 579, tert-butyl 4-((4-bromo-5-(3-((3S,4R)-4-(3,4-difluorophenyl)-1-(2-methoxyethyl)pyrrolidin-3-yl)ureido)-1-phenyl-1H-pyrazol-3-yl)methoxy)piperidine-1-carboxylate]
10 | 0.1 to 1 | COCCN1C[C@@H](NC(=O)Nc2cc(C3CCNCC3)nn2-c2ccccc2)[C@H](c2ccc(F)c(F)c2)C1 [Example 580, 1-((3S,4R)-4-(3,4-difluorophenyvl)-1-(2-methoxyethyl)pyrrolidin-3-yl)-3-(1-phenyl-3-(piperidin-4-yl)-1H-pyrazol-5-yl)urea dihydrochloride]
11 | < 0.1 | COCCN1C[C@@H](NC(=O)Nc2c(Cl)c(C3CCNCC3)nn2-c2ccccc2)[C@H](c2ccc(F)c(F)c2)C1 [Example 581, 1-(4-chloro-1-phenyl-3-(piperidin-4-yl)-1H-pyrazol-5-yl)-3-((3S,4R)-4-(3,4-difluorophenyl)-1-(2-methoxyethyl)pyrrolidin-3-yl)urea dihydrochloride]
12 | < 0.1 | COCCN1C[C@@H](NC(=O)Nc2c(Br)c(C3CCNCC3)nn2-c2ccccc2)[C@H](c2ccc(F)c(F)c2)C1 [Example 582, 1-(4-bromo-1-phenyl-3-(piperidin-4-yl)-1H-pyrazol-5-yl)-3-((3S,4R)-4-(3,4-difluorophenyl)-1-(2-methoxyethyl)pyrrolidin-3-yl)urea dihydrochloride]
13 | < 0.1 | COCCN1C[C@@H](NC(=O)Nc2c(C)c([C@H]3CCCN3)nn2-c2ccccc2)[C@H](c2ccc(F)c(F)c2)C1 [Example 583, 1-((3S,4R)-4-(3,4-difluorophenyl)-1-(2-methoxyethyl)pyrrolidin-3-yl)-3-(4-methyl-1-phenyl-3-((R)-pyrrolidin-2-yl)-1H-pyrazol-5-yl)urea dihydrochloride]
14 | < 0.1 | COCCN1C[C@@H](NC(=O)Nc2c(C)c([C@@H]3CCCN3)nn2-c2ccccc2)[C@H](c2ccc(F)c(F)c2)C1 [Example 584, 1-((3S,4R)-4-(3,4-difluorophenyl)-1-(2-methoxyethyl)pyrrolidin-3-yl)-3-(4-methyl-1-phenyl-3-((S)-pyrrolidin-2-yl)-1H-pyrazol-5-yl)urea dihydrochloride]
15 | < 0.1 | COCCN1C[C@@H](NC(=O)Nc2c(Cl)c([C@H]3CCCN3)nn2-c2ccccc2)[C@H](c2ccc(F)c(F)c2)C1 [Example 585, 1-((3S,4R)-4-(3,4-difluorophenyl)-1-(2-methoxyethyl)pyrrolidin-3-yl)-3-(4-chloro-1-phenyl-3-((R)-pyrrolidin-2-yl)-1H-pyrazol-5-yl)urea dihydrochloride]
16 | < 0.1 | COCCN1C[C@@H](NC(=O)Nc2c(C)c([C@@H]3CCCN3)nn2-c2ccccc2)[C@H](c2cc(F)cc(F)c2)C1 [Example 586, 1-((3S,4R)-4-(3,5-difluorophenyl)-1-(2-methoxyethyl)pyrrolidin-3-yl)-3-(4-methyl-1-phenyl-3-((S)-pyrrolidin-2-yl)-1H-pyrazol-5-yl)urea dihydrochloride]
17 | < 0.1 | COCCN1C[C@@H](NC(=O)Nc2c(Cl)c([C@@H]3CCCN3)nn2-c2ccccc2)[C@H](c2ccc(F)c(F)c2)C1 [Example 587, 1-((3S,4R)-4-(3,4-difluorophenyl)-1-(2-methoxyethyl)pyrrolidin-3-yl)-3-(4-chloro-1-phenyl-3-((S)-pyrrolidin-2-yl)-1H-pyrazol-5-yl)urea dihydrochloride]
18 | < 0.1 | COCCN1C[C@@H](NC(=O)Nc2c(Br)c([C@H]3CCCN3)nn2-c2ccccc2)[C@H](c2ccc(F)c(F)c2)C1 [Example 588, 1-(4-bromo-1-phenyl-3-((R)-pyrrolidin-2-yl)-1H-pyrazol-5-yl)-3-((3S,4R)-4-(3,4-difluorophenyl)-1-(2-methoxyethyl)pyrrolidin-3-yl)urea dihydrochloride]
19 | 0.1 to 1 | COCCN1C[C@@H](NC(=O)Nc2cc(COC3CCNCC3)nn2-c2ccccc2)[C@H](c2ccc(F)c(F)c2)C1 [Example 589, 1-((3S,4R)-4-(3,4-difluorophenyl)-1-(2-methoxyethyl)pyrrolidin-3-yl)-3-(1-phenyl-3-((piperidin-4-yloxy)methyl)-1H-pyrazol-5-yl)urea dihydrochloride]
20 | < 0.1 | COCCN1C[C@@H](NC(=O)Nc2c(Cl)c(COC3CCNCC3)nn2-c2ccccc2)[C@H](c2ccc(F)c(F)c2)C1 [Example 590, 1-(4-chloro-1-phenyl-3-((piperidin-4-yloxy)methyl)-1H-pyrazol-5-yl)-3-((3S,4R)-4-(3,4-difluorophenyl)-1-(2-methoxyethyl)pyrrolidin-3-yl)urea dihydrochloride]
21 | < 0.1 | COCCN1C[C@@H](NC(=O)Nc2c(Br)c(COC3CCNCC3)nn2-c2ccccc2)[C@H](c2ccc(F)c(F)c2)C1 [Example 591, 1-(4-bromo-1-phenyl-3-((piperidin-4-yloxy)methyl)-1H-pyrazol-5-yl)-3-((3S,4R)-4-(3,4-difluorophenyl)-1-(2-methoxyethyl)pyrrolidin-3-yl)urea dihydrochloride]
22 | < 0.1 | COCCN1C[C@@H](NC(=O)Nc2c(Br)c(C3CCN(S(C)(=O)=O)CC3)nn2-c2ccccc2)[C@H](c2ccc(F)c(F)c2)C1 [Example 592, 1-(4-bromo-3-(1-(methylsulfonyl)piperidin-4-yl)-1-phenyl-1H-pyrazol-5-yl)-3-((3S,4R)-4-(3,4-difluorophenyl)-1-(2-methoxyethyl)pyrrolidin-3-yl)urea]
23 | < 0.1 | COCCN1C[C@@H](NC(=O)Nc2c(Br)c(C3CCN(C(C)=O)CC3)nn2-c2ccccc2)[C@H](c2ccc(F)c(F)c2)C1 [Example 593, 1-(3-(1-acetylpiperidin-4-yl)-4-bromo-1-phenyl-1H-pyrazol-5-yl)-3-((3S,4R)-4-(3,4-difluorophenyl)-1-(2-methoxyethyl)pyrrolidin-3-yl)urea]
24 | < 0.1 | COCCN1C[C@@H](NC(=O)Nc2c(Cl)c(C3CCN(S(=O)(=O)C(F)(F)F)CC3)nn2-c2ccccc2)[C@H](c2ccc(F)c(F)c2)C1 [Example 594, 1-(4-chloro-1-phenyl-3-(1-(trifluoromethylsulfonyl)piperidin-4-yl)-1H-pyrazol-5-yl)-3-((3S,4R)-4-(3,4-difluorophenyl)-1-(2-methoxyethyl)pyrrolidin-3-yl)urea hydrochloride]
25 | < 0.1 | COCCN1C[C@@H](NC(=O)Nc2c(C)c([C@H]3CCCN3S(C)(=O)=O)nn2-c2ccccc2)[C@H](c2ccc(F)c(F)c2)C1 [Example 595, 1-((3S,4R)-4-(3,4-difluorophenyl)-1-(2-methoxyethyl)pyrrolidin-3-yl)-3-(4-methyl-3-((R)-1-(methylsulfonyl)pyrrolidin-2-yl)-1-phenyl-1H-pyrazol-5-yl)urea]
